Data published in patent US11596622B2, “Mazindol treatment for heroin dependence and substance use disorder” (NLS Pharmaceutics AG, priority 2017, dated 2023).

Assays:
[1] = tested on: C57BL/6J mice; assay: Effect of treatment on the conditioned place preference induced by heroin; format: in vivo; settings: for Distance travelled in the drug-paired compartment / Distance travelled in the two compartments (Drug + Vehicle) / Distance travelled in the vehicle-paired compartment / Distance travelled, drug-paired minus vehicle-paired compartment / Time spent in the drug-paired compartment / Time spent in the vehicle-paired compartment / Time spent, drug-paired minus vehicle-paired compartment: mean
Source text: Conditioned place preference (CPP) is a widely used procedure for studying the potential addictive effect of drugs. CPP is based upon the tendency of rodents to approach a stimulus that has previously been paired with an incentive state induced by a drug. A drug that induces a CPP may be suspected to present reinforcing effects that could lead to addiction. Numerous addictive drugs, such as opiate agonists or stimulants induce a CPP and a behavioral sensitization.
The effect of mazindol on place preference was examined in C57BL/6J mice using a method similar to the one used by Schlussman et al. (9).
The third experiments consisted in examining the effects of mazindol and D-amphetamine (at doses chosen from results of the first part of the study) on the place preference induced by heroin at a dose chosen from results of the second experiment, which was 1.25 mg/kg. Mazindol (0.125, 0.25 and 0.5 mg/kg) and D-amphetamine (0.5 mg/kg) were tested.
Therefore, it was decided to perform an additional experiment to examine the effects on place preference induced by heroin of mazindol at 1 and 2 mg/kg and of D-amphetamine at 1 mg/kg.
Following the habituation session (on day 1), animals (N=72) were pseudo-randomly assigned to two groups, a Control group (N=12) and a Heroin group (N=60), in a way that there was no significant difference between the two groups for the total distance travelled in the apparatus and for the percentage of time spent and the percentage distance travelled in the grey compartment and in the striped compartment.
Animals received the following treatments immediately before drug sessions: • Control group: vehicle • Heroin group: heroin (1.25 mg/kg)
Following the last conditioning session, the Heroin group was pseudo-randomly divided into 5 groups (N=12/group) in a way that there was no significant difference between groups for the total distance travelled in the apparatus and for the percentage of time spent and the percentage distance travelled in the grey compartment and in the striped compartment in habituation session, for the distance travelled in the drug-paired and in the vehicle-paired compartments in conditioning sessions and for the proportion of striped drug-paired compartments.
Animals received the following treatments before preference session: • Control group: vehicle of mazindol, i.p. 60 min before testing. • Hero group: vehicle of mazindol, i.p. 60 min before testing. • Hero-A 0.5 group: D-amphetamine (0.5 mg/kg), i.p. 30 min before testing. • Hero-Mz 0.125 group: mazindol (0.125 mg/kg), i.p. 60 min before testing. • Hero-Mz 0.25 group: mazindol (0.25 mg/kg), i.p. 60 min before testing. • Hero-Mz 0.5 group: mazindol (0.5 mg/kg), i.p. 60 min before testing.
Following the habituation session (on day 1), animals (N=72) were pseudo-randomly assigned to three groups, a Control group (N=12), a Heroin group (N=48) and a Mazindol group (N=12), in a way that there was no significant difference between the three groups for the total distance travelled in the apparatus and for the percentage of time spent and the percentage distance travelled in the grey compartment and in the striped compartment.
Animals received the following treatments before drug sessions: • Control group: vehicle, i.p. immediately before session. • Heroin group: heroin (1.25 mg/kg), i.p. immediately before session. • MAZ 2 group: mazindol (2 mg/kg), i.p. 60 min before session.
Following the last conditioning session, the Heroin group was pseudo-randomly divided into 4 groups (N=12/group) in a way that there is no significant difference between groups for the total distance travelled in the apparatus and for the percentage of time spent and the percentage distance travelled in the grey compartment and in the striped compartment in habituation session, for the distance travelled in the drug-paired and in the vehicle-paired compartments in conditioning sessions and for the proportion of striped drug-paired compartments. […]

[2] = tested on: Sprague-Dawley rats; assay: Naloxone precipitated withdrawal syndrome of heroin; format: in vivo
Method: The abrupt cessation of chronic opiate use results in a well characterized withdrawal syndrome with symptoms that include pain sensitivity, dysphoria, irritability, restlessness, insomnia, diarrhea and hyperventilation. In the present model, the naloxone-precipitated withdrawal syndrome is measured in rodents. Animals are chronically treated with a drug, e.g. morphine or heroin. Opiate withdrawal syndrome is elicited by an acute injection of the opiate antagonist Naloxone.
The effect of mazindol on heroin withdrawal syndrome elicited by naloxone was examined in Sprague-Dawley rats using a method similar to the one used by Jiang et al. (10),
Animals were subdivided into two groups. One group received heroin two i.p. injections/day for 12 consecutive days and a single injection on the 13th day (total: 25 injections) as exposed in Table 3 group received saline instead of heroin following the same protocol.
On day 13, animals received treatments and were tested according to the following time schedule: • T=0: i.p. injection of heroin (15 mg/kg) or vehicle. • T=2.5 h: animals individually placed in a transparent Plexiglas observation boxes (40×40×40 cm). • T=3.5 h: i.p. injection of treatment (see below). • T=4 h: i.p. injection of naloxone (5 mg/kg), start of test: observation of withdrawal symptoms as indicated in Table 4. • T=5 h: end of test, animals placed back into their home cages.
Animals received the following treatments at T 3.5 h (i.e. 30 min before injection of naloxone and observation of symptoms): • 1) Animals treated with saline during the intoxication period (days 1-12) and at T0 on day 13: • Saline group (N=8): saline (0.9% NaCl). • 2) Animals treated with […] during the intoxication period (days 1-12) and at T0 on day 13: • Hero group (N=14): saline (0.9% NaCl). • Amph 1 group (N=4): D-amphetamine (1 mg/kg). • Maz 0.125 group (N=5): mazindol (0.125 mg/kg). • Maz 0.25 group (N=6): mazindol (0.25 mg/kg). • Maz 0.5 group (N=6): mazindol (0.5 mg/kg). • Maz 1 group (N=6): mazindol (1 mg/kg). • Maz 2 group (N=5): mazindol (2 mg/kg).
A weighting factor was ascribed for each sign from which a score was calculated.
Examples: • Body weight before naloxone injection=241 g; after naloxone injection=236 g: • Weight loss score=2=100×(241−236)/241 • Number of escape attempts=8: • Score for escape attempts=2 • Profuse salivation present: • Score for profuse salivation
A global withdrawal score was then calculated: • Global score=the sum of the scores

[3] = Hero-A 0.5: heroin 1.25 mg/kg conditioning, D-amphetamine 0.5 mg/kg i.p. 30 min before preference session
[4] = Hero-A 1: heroin 1.25 mg/kg conditioning, D-amphetamine 1 mg/kg i.p. 30 min before preference session
[5] = Amph 1: heroin-treated rats, D-amphetamine 1 mg/kg i.p. 30 min before naloxone 5 mg/kg, mean

## C[C@H](N)Cc1ccccc1.C[C@H](N)Cc1ccccc1.O=S(=O)(O)O [D-amphetamine, D-amphetamine sulfate]
[1]; D-amphetamine 0.5 mg/kg
  effect on the heroin-induced increase of distance travelled in the drug-paired compartment: had no effect
  effect on the heroin-induced increase of time spent in the drug-paired compartment: non-significantly reduced
[1]; D-amphetamine 1 mg/kg
  effect on the heroin-induced increases of time spent and distance travelled in the drug-paired compartment: did not modify
[1]; D-amphetamine 0.5, 1 mg/kg i.p. before preference session
  effect on the place preference induced by heroin: do not show a reliable effect
[1]; D-amphetamine 0.5 and 1 mg/kg i.p. before preference session
  total distance travelled in two compartments (FIG. 3): at 0.5 mg/kg, but not at 1 mg/kg decreased the total distance travelled in two compartments
[1]; [3]
  Distance travelled in the drug-paired compartment: 6797.2 cm
  Distance travelled in the two compartments (Drug + Vehicle): 11379.9 cm
  Distance travelled in the vehicle-paired compartment: 4582.7 cm
  Distance travelled, drug-paired minus vehicle-paired compartment: 2214.6 cm
  Time spent in the drug-paired compartment: 984.5 s
  Time spent in the vehicle-paired compartment: 815.5 s
  Time spent, drug-paired minus vehicle-paired compartment: 168.9 s
[1]; [4]
  Distance travelled in the drug-paired compartment: 7416.7 cm
  Distance travelled in the two compartments (Drug + Vehicle): 13005.6 cm
  Distance travelled in the vehicle-paired compartment: 5588.9 cm
  Distance travelled, drug-paired minus vehicle-paired compartment: 1827.8 cm
  Time spent in the drug-paired compartment: 1048.3 s
  Time spent in the vehicle-paired compartment: 751.7 s
  Time spent, drug-paired minus vehicle-paired compartment: 296.5 s
[2]; [5]
  Abdominal constrictions score (Abd C): 0.0
  Abnormal posture score (Ab P): 0.0
  Chromodacryorrhea score (Chr): 5.0
  Diarrhea score (Diarr): 2.0
  Erection or ejaculation score (Er Ej): 0.0
  Escape attempts score (Esc A): 1.8
  Facial fasciculation or teeth chattering score (F F T C): 2.0
  Global Score: 22.5
  Irritability score (Irrit): 0.0
  Profuse salivation score (Pr Sal): 5.3
  Ptosis score (Ptos): 0.0
  Swallowing movements score (Sw M): 1.0
  Weight loss score (W Los): 2.0
  Wet dog shakes score (W D S): 3.5
[2]; D-amphetamine 1 mg/kg
  effect on naloxone precipitated withdrawal symptoms of heroin: did not reduce the withdrawal symptoms of heroin
[2]; D-amphetamine 1 mg/kg, increase not significant
  effect on chromodacryorrhea: tended to increase
